Test results as given in patent publication US20080027063A1, “IMIDAZOPYRAZINES AS PROTEIN KINASE INHIBITORS” (Schering Corporation, priority 2006, published 2008).

Test system: CHK1
Experiment: CHK1 SPA Assay
Assay type: biochemical
Details: recombinant His-CHK1, CDC25C biotinylated peptide, 1 μM ATP, 2 hours, room temperature
Description: CHK1 SPA Assay An in vitro assay was developed that utilizes recombinant His-CHK1 expressed in the baculovirus expression system as an enzyme source and a biotinylated peptide based on CDC25C as substrate (biotin-[…]). Materials and Reagents: 1) CDC25C […]-term Biotinylated peptide substrate (25 mg), stored at -20° C., Custom Synthesis by Research Genetics: biotin-[…] 2) His-CHK1 In House lot P976, 235 μg/mL, stored at -80° C. 3) D-PBS (without CaCl and MgCl): GIBCO, Cat.# 14190-144 4) SPA beads: Amersham, Cat.# SPQ0032: 500 mg/vial • Add 10 mls of D-PBS to 500 mg of SPA beads to make a working concentration of 50 mg/ml. Store at 4° C. Use within 2 week after hydration. 5) 96-Well White Microplate with Bonded GF/B filter: Packard, Cat.# 6005177 6) Top seal-A 96 well Adhesive Film: Perkin Elmer, Cat.# 6005185 7) 96-well Non-Binding White Polystyrene Plate: Corning, Cat. # 6005177 8) MgCl2: Sigma, Cat.# M-8266 9) DTT: Promega, Cat.# V3155 10) ATP, stored at 4° C.: Sigma, Cat.# A-5394 11) γ^33P-ATP, 1000-3000 Ci/mMol: Amersham, Cat.# AH9968 12) NaCl: Fisher Scientific, Cat.# BP358-212 13) H3PO4 85% Fisher, Cat.#A242-500 14) Tris-HCL pH 8.0: Bio-Whittaker, Cat. # 16-[…] 15) Staurosporine, 100 ug: CALBIOCHEM. Cat. # 569397 16) Hypure Cell Culture Grade Water, 500 mL: HyClone, Cat.# SH30529.02 Reaction Mixtures: 1) Kinase Buffer: 50 mM Tris pH 8.0; 10 mM MgCl2; 1 mM DTT 2) His-CHK1, In House Lot P976, MW 30 KDa, stored at -80° C. 6 nM is required to yield positive controls of 5,000 CPM. For 1 plate (100 rxn): dilute 8 μL of 235 ug/mL (7.83 uM) stock in 2 mL Kinase Buffer. This makes a 31 nM mixture. Add 20 μL/well. This makes a final reaction concentration of 6 nM. 3) CDC25C Biotinylated peptide. Dilute CDC25C to 1 mg/mL (385 uM) stock and store at -20° C. For 1 plate (100 rxn): dilute 10 μL of 1 mg/mL peptide stock in 2 ml Kinase Buffer. This gives a 1.925 uM mix. Add 20 μL/rxn. This makes a final reaction concentration of 385 nM 4) ATP Mix. For 1 plate (100 rxn): dilute 10 μL of 1 mM ATP (cold) stock and 2 μL fresh P33-ATP (20 μCi) in 5 ml Kinase Buffer. This gives a 2 uM ATP (cold) solution; add 50 μl/well to start the reaction. Final volume is 100 μl/rxn so the final reaction concentrations will be 1 uM ATP (cold) and 0.2 μCi/reaction. 5) Stop Solution: For 1 plate add: To 10 mL Wash Buffer 2 (2M NaCl 1% H3PO4): 1 mL SPA bead slurry (50 mg); Add 100 μL/well 6) Wash buffer 1: 2 M NaCl 7) Wash buffer 2: 2 M NaCl, 1% H3PO4 Assay Procedure: [table] 1) Dilute compounds to desired concentrations in water/10% DMSO-this will give a final DMSO concentration of 1% in the reaction. Dispense 10 μl/rxn to appropriate wells. Add 10 μL 10% DMSO to positive (CHK1+CDC25C+ATP) and negative (CHK1+ATP only) control wells. […]

| IC50 | Structure (SMILES) |
| --- | --- |
| 139 nM | Nc1ncc(-c2cc(-c3ccccc3)cs2)n2cc([C@H]3CCCNC3)nc12 |
| 84 nM | Nc1ncc(-c2cc(-c3ccc(Cl)cc3)cs2)n2cc([C@H]3CCCNC3)nc12 |
| 216 nM | Cc1ccc(-c2cnc(N)c3nc(C4CCCNC4)cn23)s1 (stereo not shown) |
| 187 nM | Nc1ncc(-c2cc3ccccc3s2)n2cc(C3CCCNC3)nc12 (stereo not shown) |
